We go through 14 molecules from US11858925B2, “GAS41 inhibitors and methods of use thereof” (The Regents of the University of Michigan, priority 2020, dated 2024).

Like-named read-outs stand apart in the source and are kept apart here.

The test system of one assay is A549 cells. As to the kind of experiment: Growth inhibition of A549 cells. The following applies: Homo sapiens, 12 μM concentration. Format: cell-based. The method, then: (§1) To investigate cellular activity of GAS41 inhibitors, H1299 cells were treated with monomeric Compound 88 and dimeric Compound 221 for 4 days. […] To determine whether growth inhibition is dependent on presence of GAS41 we developed A549 GAS41 knocked-out cells using the CRISPR/CAS9 system. We found GAS41-KO were viable but grew more slowly compare with parental A549 cells and had reduced growth by ˜70% at day 14 (FIG. 4B). […] Next, we evaluated the effect of Compound 221 on growth of two NSCLC cell lines H1299 and H1933 with GAS41 amplification. […] Such effect correlates closely with activity of Compound 221 in NanoBit assay (FIG. 3). To further validate on-target activity of Compound 221, we tested expression of GAS41 target genes in H1299 (Hsu 2018). […] Altogether, dimeric inhibitor Compound 221 reduces binding of GAS41 to acetylated H3.3 in cells and induces on-target growth inhibition in NSCLCs lines.

The test system of another assay is H1933 cells. As to the kind of experiment: Growth inhibition of H1933 cells. The following applies: 336 h, day 14. Format: cell-based. Here is the method:
as §1

Another assay relates to A549 GAS41-KO cells. The assay is described as follows: Growth of A549 GAS41 knocked-out cells. Format: cell-based. The method, then:
as §1

Assay [1] addresses T1, His6-tagged full-length GAS41 (Homo sapiens, UniProt O95619).
T1 construct: using His6-tagged full-length GAS41 and biotinylated-, di-crotonylated-H3 peptide
The assay is described as follows: AlphaScreen competition assay with full-length GAS41 and biotin-H3K23crK27cr. Format: binding. Here is the method: An AlphaScreen competition assay was also developed using His6-tagged full-length GAS41 and biotinylated-, di-crotonylated-H3 peptide (biotin-H3K23crK27cr). For full-length protein competition experiments, 100 nM MOCR-his6-Gas41 protein was incubated with 100× competitor in 50 mM HEPES pH 7.5, 100 mM NaCl, 1 mM TCEP, 0.05% BSA, 0.01% Tween-20 for 1 hour at 1% DMSO in a 96-well ½-Area AlphaPlate. H3K23crK27cr-biotin was added to a final concentration of 25 nM and incubated for 1 hour. Nickel Chelate Acceptor AlphaScreen beads were added to a final concentration of 10 μg/mL and incubated for 1 hour. Streptavidin Donor AlphaScreen beads were added to a final concentration of 10 μg/mL and incubated for 2 hours. Alpha signal was measured on a Pherastar plate reader.
(Alpha assays give light when donor and acceptor beads are brought close together.)

The subject of the next assay is H1299 cells. As to the kind of experiment: Growth inhibition of H1299 cells. Format: cell-based. To be noted: for GI50: Homo sapiens. The method, then:
as §1

The target of assay [2] is T2, GAS41-WT interaction with H3.3 (Homo sapiens, UniProt O95619).
T2 construct: expressed in transfected cells; host or cells: HEK293T
As to the kind of experiment: NanoBiT assay, LgBiT-GAS41-WT and SmBiT-H3.3 in HEK293T cells. Format: cell-based. To be noted: 24 h treatment, 293T cells, estimated, read-out: IC50, inhibition of the luminescence signal. Here is the method: A NanoBiT assay (Promega Corporation, Madison, WI) was developed to detect inhibition of protein-protein interaction in HEK293T cells by compounds. GAS41-WT and GAS41-W93A mutant were cloned into pBiT1.1-C[TK/LgBiT] vector. SmBiT-H3.3 was purchased from Promega. HEK293T cells (4×10E5) were plated into 6-well plates (DMEM with 10% FBS) and incubated for 5 h. The LgBiT-GAS41 and SmBiT-H3.3 plasmids were co-transfected using FuGENE HD for 42 h. 5×10^4 cells were transferred into 96-well white plates (DMEM with 10% FBS and 1% Penicillin and Streptomycin) and treated with compounds for 24 h. After the Nano-Glo Live Cell Reagent was added to each well, the luminescence was measured immediately using PHERAstar FS instrument.
Introduction of a point mutation W93A in LgBit GAS41 abolishing histone recognition (Hsu 2018) largely diminished luminescence signal and validates the NanoBit assay.

The next assay has as its target T3, GAS41 YEATS domain (Homo sapiens, UniProt O95619).
T3 construct: 500 nM his6-Gas41(13-158) and 250 nM avi-Gas41-YEATS were incubated; His-tagged and biotin-labeled Avi-tagged GAS41 YEATS domain constructs
The assay is described as follows: AlphaScreen dimerization assay with his6-Gas41(13-158) and avi-Gas41-YEATS. Format: binding. To be noted: titration of his6-Gas41(13-158) and avi-Gas41-YEATS; Hook effect at highest concentrations. Here is the method:
An AlphaScreen assay based on His-tagged and biotin-labeled Avi-tagged GAS41 YEATS domain constructs was developed. For dimerization experiments, 500 nM his6-Gas41(13-158) and 250 nM avi-Gas41-YEATS were incubated in 50 mM HEPES pH 7.5, 100 mM NaCl, 1 mM TCEP, 0.05% BSA, 0.01% Tween-20 in a 96-well ½-Area AlphaPlate incubated for 30 minutes. Compounds 221 and 223 were added to a final concentration of 250 nM at 1% DMSO. Nickel Chelate Acceptor AlphaScreen beads were added to a final concentration of 10 μg/mL and incubated for 1 hour. Streptavidin Donor AlphaScreen beads were added to a final concentration of 10 μg/mL and incubated for 2 hours. For competition experiments with the dimeric complex, 500 nM his-Gas41(13-158) and 250 nM avi-Gas41-YEATS were incubated in assay buffer with 250 nM dimeric inhibitor for 30 minutes before the addition of monomeric competitor. AlphaScreen beads were added as in previous experiments. Alpha signal was measured on a Pherastar plate reader.
(§2) The signal was further decreased at highest compound concentrations, and indicates saturation of YEATS domain via independent inhibitor molecules (Hook effect).

In assay [3] the target is T4, 15N-labeled GAS41 YEATS domain (Homo sapiens, UniProt O95619).
T4 construct: GAS41 YEATS domain were also compared by NMR
The assay is described as follows: 1H-15N HSQC NMR binding to 15N-labeled GAS41 YEATS domain. The following applies: 60 μM 15N-labeled GAS41 YEATS; 60 μM Compound 85 or 30 μM Compound 223. The method, then:
FIGS. 2A-2C show data for activities of compounds disclosed herein. A) Results of a dimerization assay to determine bivalent inhibitor-induced dimerization of GAS41 YEATS domain, as described in Example 6. B) ^1H-^15N HSQC spectrum of 60 μM ^15N-labeled GAS41 YEATS domain (black) and in presence of 60 μM Compound 85 (red). C) ^1H-^15N HSQC spectrum of 60 μM ^15N-labeled GAS41 YEATS domain in presence of 30 μM Compound 223 (red).
as §2

Setting [4] is: AlphaScreen assay, bin Less than 500 nM, read-out: GAS41 YEATS inhibitor IC50.

T1 sequence (O95619 whole entry): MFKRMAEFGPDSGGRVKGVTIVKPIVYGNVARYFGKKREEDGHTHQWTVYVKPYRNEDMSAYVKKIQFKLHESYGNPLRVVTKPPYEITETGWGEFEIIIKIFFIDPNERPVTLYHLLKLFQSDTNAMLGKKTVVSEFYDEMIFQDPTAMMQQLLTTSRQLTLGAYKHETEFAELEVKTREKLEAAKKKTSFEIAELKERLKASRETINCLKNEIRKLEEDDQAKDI
T4 sequence (O95619 15-158 limits assumed): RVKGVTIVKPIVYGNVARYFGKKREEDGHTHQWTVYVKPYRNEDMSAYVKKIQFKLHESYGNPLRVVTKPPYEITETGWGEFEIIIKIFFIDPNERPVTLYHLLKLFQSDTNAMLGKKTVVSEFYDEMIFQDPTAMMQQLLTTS
T2 sequence (O95619 whole entry): as the sequence (O95619 whole entry) above
T3 sequence (O95619 13-158 limits assumed): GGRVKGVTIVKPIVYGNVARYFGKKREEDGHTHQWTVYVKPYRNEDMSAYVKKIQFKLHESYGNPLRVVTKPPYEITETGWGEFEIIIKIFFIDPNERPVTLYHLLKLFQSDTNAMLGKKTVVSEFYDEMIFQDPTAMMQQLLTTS
T3 sequence (O95619 15-158 limits assumed): as the sequence (O95619 15-158 limits assumed) above

With `O=C(Nc1ccc(C(=O)N2CC(c3nc4ccccc4s3)C2)s1)[C@@H]1C[C@@H](OCCCCO[C@H]2CN[C@H](C(=O)Nc3ccc(C(=O)N4CC(c5nc6ccccc6s5)C4)s3)C2)CN1` [Compound 221], in the assay on A549 cells, the inhibition (usually how much of the control response was suppressed) at 12 µM was about 40%. Also, the GI50 (as a rule, the concentration giving 50% growth inhibition) with H1933 cells is about 6000 nM; with H1299 cells (NCI-H1299, 96 h, H1299 cells treated for 4 days), about 3000 nM; in the assay with H1299 cells (NCI-H1299, 336 h, H1299 cells, day 14), about 6000 nM. In addition, the effect on growth entry in the assay on A549 GAS41-KO cells is “no effect”. Also, the figures for the IC50 in assay [1] (setting [4]) and in assay [2] were under 500 nM and 6000 nM, respectively.

Consider `CN(Cc1cccc(-c2cnc(C3CN(C(=O)c4ccc(NC(=O)C5CCCN5)s4)C3)s2)c1)Cc1cccc(-c2cnc(C3CN(C(=O)c4ccc(NC(=O)[C@@H]5CCCN5)s4)C3)s2)c1` (stereo partly shown) [Compound 212], for which the IC50 (commonly the concentration needed to halve the response being measured) in assay [1] (setting [4]) was under 500 nM.

In the case of `O=C(Nc1ccc(C(=O)N2CC(c3nc4ccccc4s3)C2)s1)[C@@H]1CCCN1` [Compound 88], the “dose dependent growth inhibition” value in the assay on H1299 cells (H1299 cells treated for 4 days) was “Only the dimer Compound 221 induces dose dependent growth inhibition”.

In the case of `CC(C)(C)c1ccc(C(=O)N2CCCC2)s1` [Compound 134, (5-(tert-butyl)thiophen-2-yl)(pyrrolidin-1-yl)methanone], in assay [1] (AlphaScreen, 100 nM MOCR-his6-Gas41, 25 nM H3K23crK27cr-biotin, read-out: IC50), the IC50 was found to be 73000 nM.

Turning to `O=C(Nc1ccc(C(=O)N2CC(c3nccs3)C2)s1)[C@@H]1C[C@@H](OCCCCCCO[C@H]2CN[C@H](C(=O)Nc3ccc(C(=O)N4CC(c5nccs5)C4)s3)C2)CN1` [Compound 223, (2S,2′S,4R,4′R)-4,4′-(hexane-1,6-diylbis(oxy))bis(N-(5-(3-(thiazol-2-yl)azetidine-1-carbonyl)thiophen-2-yl)pyrrolidine-2-carboxamide)], the IC50 in assay [1] (setting [4]) is under 500 nM. For the same molecule, the “luminescence signal reflecting formation of the dimeric complex” value on GAS41 YEATS domain is reported as “increase of luminescence signal”. Further, the “broadening of NMR signals (formation of a larger dimeric complex)” value in assay [3] is on record as “induces very substantial broadening of signals”.

As for `O=C(Nc1ccc(C(=O)N2CC(c3nccs3)C2)s1)[C@@H]1C[C@@H](OCc2ccc(CO[C@H]3CN[C@H](C(=O)Nc4ccc(C(=O)N5CC(c6nccs6)C5)s4)C3)cc2)CN1` [Compound 222], the half-maximal inhibitory concentration (IC50) in assay [1] (setting [4]) was under 500 nM.

On to `O=C(Nc1ccc(C(=O)N2CC(c3ncc(-c4cccc(COCc5cccc(-c6cnc(C7CN(C(=O)c8ccc(NC(=O)[C@@H]9CCCN9)s8)C7)s6)c5)c4)s3)C2)s1)C1CCCN1` (stereo partly shown) [Compound 210], for which the IC50 in assay [1] (setting [4]) is under 500 nM.

For `O=C(Nc1ccc(C(=O)N2CC(c3nccs3)C2)s1)[C@@H]1C[C@@H](OCCCCCCCCO[C@H]2CN[C@H](C(=O)Nc3ccc(C(=O)N4CC(c5nccs5)C4)s3)C2)CN1` [Compound 220], in assay [1] (setting [4]), the IC50 was under 500 nM.

Take `O=C(Nc1ccc(C(=O)N2CC(c3nc4ccccc4s3)C2)s1)[C@@H]1C[C@@H](OCCCCCCCCO[C@H]2CN[C@H](C(=O)Nc3ccc(C(=O)N4CC(c5nc6ccccc6s5)C4)s3)C2)CN1` [Compound 219]: the IC50 in assay [1] (setting [4]) was under 500 nM.

With `CN(C(=O)C1C[C@@H](OCCCCCCO[C@H]2CN[C@H](C(=O)N(C)c3ccc(C(=O)N4CC(c5nccs5)C4)s3)C2)CN1)c1ccc(C(=O)N2CC(c3nccs3)C2)s1` (stereo partly shown) [Compound 217], in assay [1] (setting [4]), the IC50 is under 500 nM.

For the molecule `O=C(Nc1ccc(C(=O)N2CC(c3nccs3)C2)s1)[C@@H]1CCCN1` [Compound 85, (S)—N-(5-(3-(thiazol-2-yl)azetidine-1-carbonyl)thiophen-2-yl)pyrrolidine-2-carboxamide], the “broadening of NMR signals (formation of a larger dimeric complex)” value in assay [3] is listed as “not monomeric Compound 85”.

Turning to `O=C(Nc1ccc(C(=O)N2CC(c3nc4ccccc4s3)C2)s1)[C@@H]1C[C@@H](OCCCCCCO[C@H]2CN[C@H](C(=O)Nc3ccc(C(=O)N4CC(c5nc6ccccc6s5)C4)s3)C2)CN1` [Compound 218], in assay [1] (setting [4]), the IC50 is under 500 nM.

For the molecule `CC(=O)NCCCCCCN(Cc1cccc(-c2cnc(C3CN(C(=O)c4ccc(NC(=O)C5CCCN5)s4)C3)s2)c1)Cc1cccc(-c2cnc(C3CN(C(=O)c4ccc(NC(=O)[C@@H]5CCCN5)s4)C3)s2)c1` (stereo partly shown) [Compound 213], the IC50 in assay [1] (setting [4]) is under 500 nM.

Consider `O=C(Nc1ccc(C(=O)N2CC(c3ncc(-c4cccc(CNCc5cccc(-c6cnc(C7CN(C(=O)c8ccc(NC(=O)[C@@H]9CCCN9)s8)C7)s6)c5)c4)s3)C2)s1)C1CCCN1` (stereo partly shown) [Compound 211], for which, in assay [1] (setting [4]), the IC50 is under 500 nM.
